The values below come from patent publication US20230167101A1, “NOVEL INHIBITORS OF HISTONE […] P300/CBP FOR CANCER THERAPY” (BAYLOR COLLEGE OF MEDICINE, priority 2020, published 2023).

One experiment addresses T1, human CBP HAT (Homo sapiens, UniProt Q92793).
T1 construct: made in house
Kind of experiment: CBP HAT inhibition assay. The experiment is classed as biochemical. Particulars: read-out: IC50 against CBP HAT. The text has this:
(§1) Humans have three classes of histone/protein lysine acetyltransferases with distinct conserved motifs and structures, including p300/CBP, Gcn5-related N-acetyltransferase (GNAT) and MYST (MOZ, Ybf2, Sas2 and Tip60) family of HATs. […] CBP is a homolog of p300. […] PCAF (p300/CBP associating factor) is a member of the GNAT family, while Myst3 belongs to the MYST family of HATs.
The HAT domain (1195-1673) of human p300 was cloned, inserted into pGEX-KG vector and the DNA sequence was verified by sequencing. The p300-HAT expression plasmid was transformed into E. coli BL21-CodonPlus strain (Agilent) and cultured at 37° C. in LB medium containing ampicillin (50 µg/mL) and chloramphenicol (34 µg/mL). After the optical density of the bacterial culture reached ~0.9 at 600 nm, p300 HAT expression was induced by adding 300 µM isopropylthiogalactoside (IPTG) at 18° C. for 48 hours. Cells were collected, lysed, centrifuged for 20 min at 20,000 rpm. The supernatant was subjected to column chromatography with glutathione sepharose resins. […]
To determine inhibitory activity, a compound with concentrations ranging from 100 nM to 10 µM was incubated with p300-HAT (10 nM) in 20 µL of 50 mM phosphate buffer (pH = 7.0) containing 0.01% Brij-35 for 10 min at 25° C. […] Radioactivity on the filter paper was measured with a Beckman LS-6500 scintillation counter. […]

The target of the next experiment is T2, PCAF (Homo sapiens, UniProt Q92831).
T2 construct: made in house
Kind of experiment: PCAF HAT inhibition assay. The class given is biochemical.
Text: as §1
The HAT domain (1195-1673) of human p300 was cloned, inserted into pGEX-KG vector and the DNA sequence was verified by sequencing. The p300-HAT expression plasmid was transformed into E. coli BL21-CodonPlus strain (Agilent) and cultured at 37° C. in LB medium containing ampicillin (50 µg/mL) and chloramphenicol (34 µg/mL). After the optical density of the bacterial culture reached ~0.9 at 600 nm, p300 HAT expression was induced by adding 300 µM isopropylthiogalactoside (IPTG) at 18° C. for 48 hours. Cells were collected, lysed, centrifuged for 20 min at 20,000 rpm. The supernatant was subjected to column chromatography with glutathione sepharose resins. The recombinant GST-p300-HAT fusion protein was obtained in ~90% purity (SDS-PAGE) by elution with 10 mM of glutathione solution, which was further purified using a Superdex 200 gel filtration column chromatography. CBP, PCAF and Myst3 HATs were obtained using similar methods.
To determine inhibitory activity, a compound with concentrations ranging from 100 nM to 10 µM was incubated with p300-HAT (10 nM) in 20 µL of 50 mM phosphate buffer (pH = 7.0) containing 0.01% Brij-35 for 10 min at 25° C. Histone H3 peptide (1-21) (20 µM) and Acetyl-CoA (1 µM ^3H—Ac—CoA and 19 µM Ac—CoA) were added to initiate the reaction. After 30 min at 25° C., the reaction was stopped by adding 6 N formic acid (5 µL). 20 µL of reaction mixture was then transferred to a small piece of P81 filter paper (Whatman) that binds histone H3 peptide. The filter paper was washed 3x with 50 mM NaHCO3, dried, and transferred into a scintillation vial containing 2 mL of scintillation cocktail. Radioactivity on the filter paper was measured with a Beckman LS-6500 scintillation counter. […]

T2 sequence (Q92831 whole entry): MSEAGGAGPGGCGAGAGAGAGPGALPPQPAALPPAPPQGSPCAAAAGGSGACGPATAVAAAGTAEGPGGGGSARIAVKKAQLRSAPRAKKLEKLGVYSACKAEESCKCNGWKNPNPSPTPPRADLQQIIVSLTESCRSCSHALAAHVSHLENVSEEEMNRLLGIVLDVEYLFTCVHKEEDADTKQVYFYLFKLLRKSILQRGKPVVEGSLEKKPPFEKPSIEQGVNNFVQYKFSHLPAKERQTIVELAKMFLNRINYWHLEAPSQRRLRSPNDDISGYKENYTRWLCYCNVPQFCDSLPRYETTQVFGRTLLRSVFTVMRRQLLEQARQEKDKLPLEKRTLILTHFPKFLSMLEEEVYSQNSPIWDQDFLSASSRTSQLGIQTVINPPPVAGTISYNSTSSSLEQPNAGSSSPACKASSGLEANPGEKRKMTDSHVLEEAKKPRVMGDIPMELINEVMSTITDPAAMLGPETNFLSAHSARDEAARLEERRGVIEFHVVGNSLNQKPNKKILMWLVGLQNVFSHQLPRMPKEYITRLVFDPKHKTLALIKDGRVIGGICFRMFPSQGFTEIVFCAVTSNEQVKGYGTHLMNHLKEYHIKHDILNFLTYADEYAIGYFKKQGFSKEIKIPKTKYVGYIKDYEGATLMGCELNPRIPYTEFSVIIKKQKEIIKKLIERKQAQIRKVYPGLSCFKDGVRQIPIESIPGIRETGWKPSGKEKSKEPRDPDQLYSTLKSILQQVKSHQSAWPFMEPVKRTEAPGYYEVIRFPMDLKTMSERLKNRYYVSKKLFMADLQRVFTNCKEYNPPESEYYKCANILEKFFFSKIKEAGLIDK
T1 sequence (Q92793 1323-1700 limits assumed): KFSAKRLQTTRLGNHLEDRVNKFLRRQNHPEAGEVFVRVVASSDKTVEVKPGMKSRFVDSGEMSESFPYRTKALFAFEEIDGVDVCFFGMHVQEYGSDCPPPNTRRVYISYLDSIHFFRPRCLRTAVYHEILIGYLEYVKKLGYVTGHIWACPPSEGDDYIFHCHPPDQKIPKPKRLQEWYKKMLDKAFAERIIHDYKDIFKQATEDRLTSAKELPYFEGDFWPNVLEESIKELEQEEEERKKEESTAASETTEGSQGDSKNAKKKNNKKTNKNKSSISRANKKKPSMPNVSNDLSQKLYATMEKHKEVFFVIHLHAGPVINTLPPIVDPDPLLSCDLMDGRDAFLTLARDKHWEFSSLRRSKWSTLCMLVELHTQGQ

By IC50 is commonly meant the concentration needed to halve the response being measured. Take `CC(C)(C)c1ccc(-c2cc(CNCC3CCNCC3)sc2-c2ccc(C(C)(C)C)cc2)cc1` [Compound 12]: on human CBP HAT, the IC50 was found to be 1200 nM. In addition, at PCAF (at 20 µM), the “inhibition of PCAF” value was less than 10% and the “inhibition of PCAF activity (in words)” value is reported as “did not significantly inhibit”. On PCAF (read-out: IC50 against PCAF), the IC50 was more than 20000 nM.
